SMILES strings stand for the structures.

The target in the assay is T1, Estrogen Receptor (ERα) in MCF-7 human ductal carcinoma breast cell line (Homo sapiens, UniProt P03372).
T1 construct: endogenous in cells; host or cells: MCF-7
T1 sequence (P03372 1-595): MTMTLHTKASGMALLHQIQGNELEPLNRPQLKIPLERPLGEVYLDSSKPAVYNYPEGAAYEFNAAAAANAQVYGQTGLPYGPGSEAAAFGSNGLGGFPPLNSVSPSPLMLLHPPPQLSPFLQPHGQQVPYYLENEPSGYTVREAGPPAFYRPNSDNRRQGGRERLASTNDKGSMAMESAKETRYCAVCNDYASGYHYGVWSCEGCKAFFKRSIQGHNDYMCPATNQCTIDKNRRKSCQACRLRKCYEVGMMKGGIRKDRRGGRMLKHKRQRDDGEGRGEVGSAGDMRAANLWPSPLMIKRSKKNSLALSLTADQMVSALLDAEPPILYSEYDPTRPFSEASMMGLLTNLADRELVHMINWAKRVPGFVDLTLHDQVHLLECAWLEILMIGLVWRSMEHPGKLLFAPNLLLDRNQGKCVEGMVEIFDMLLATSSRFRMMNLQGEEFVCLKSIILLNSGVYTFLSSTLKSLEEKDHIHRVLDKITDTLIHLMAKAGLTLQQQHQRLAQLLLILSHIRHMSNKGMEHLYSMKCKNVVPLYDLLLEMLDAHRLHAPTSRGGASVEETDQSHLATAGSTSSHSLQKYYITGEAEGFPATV
The experiment in a line: MCF-7 ER degradation assay (cell based immuno-fluorescence). Conditions: MCF-7 cells; for ER degradation ≥ 90% at 0.3 μM: ER degradation by fulvestrant at 0.3 μM is defined as 100%; for DC50: 18-22 hours incubation, 50% reduction of ERα expression, single experiment or average of two or more, read-out: MCF-7 ER degradation IC50. Put shortly: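 MCF-7 human ductal carcinoma breast cells were seeded at 3.75×10^4 cells per mL (40 μL per well) in 384 well plates with phenol red free DMEM containing 2 mM L-Glutamine and 5% (v/v) Charcoal/Dextran treated foetal calf serum. After overnight culture, compounds were acoustically dispensed, incubated 18-22 hours, then cells were formaldehyde-fixed and immunostained for ERα.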

In the case of `Cc1ncsc1-c1ccc(CNC(=O)[C@@H]2C[C@@H](O)CN2C(=O)[C@@H](NC(=O)c2cnn(CCOCCNC(=O)/C=C/c3cc(F)c([C@@H]4c5[nH]c6ccccc6c5C[C@@H](C)N4CC(C)(C)F)c(F)c3)c2)C(C)(C)C)cc1` [Example 64, 1-(2-(2-((E)-3-(3,5-difluoro-4-((1R,3R)-2-(2-fluoro-2-methylpropyl)-3-methyl-2,3,4,9-tetrahydro-1H-pyrido[3,4-b]indol-1-yl)phenyl)acrylamido)ethoxy)ethyl)-N—((S)-1-((2S,4R)-4-hydroxy-2-((4-(4-methylthiazol-5-yl)benzyl)carbamoyl)pyrrolidin-5-yl)-3,3-dimethyl-1-oxobutan-2-yl)-1H-pyrazole-4-carboxamide, Trifluoroacetic Acid], the “ER degradation ≥ 90% at 0.3 μM” value was “•” and the DC50 came to 0.5 nM.

As for `Cc1ncsc1-c1ccc(CNC(=O)[C@@H]2C[C@@H](O)CN2C(=O)[C@@H](NC(=O)COCc2cccc(CCCOc3cc(F)c([C@@H]4c5[nH]c6ccccc6c5C[C@@H](C)N4CC(C)(C)F)c(F)c3)c2)C(C)(C)C)cc1` [Example 74, (2S,4R)-1-((S)-2-(2-((3-(3-(3,5-Difluoro-4-((1R,3R)-2-(2-fluoro-2-methylpropyl)-3-methyl-2,3,4,9-tetrahydro-1H-pyrido[3,4-b]indol-1-yl)phenoxy)propyl)benzyl)oxy)acetamido)-3,3-dimethylbutanoyl)-4-hydroxy-N-(4-(4-methylthiazol-5-yl)benzyl)pyrrolidine-2-carboxamide], the “ER degradation ≥ 90% at 0.3 μM” value is listed as “••” and the DC50 was found to be 14.3 nM.

Take `Cc1ncsc1-c1ccc(CNC(=O)[C@@H]2C[C@@H](O)CN2C(=O)[C@@H](NC(=O)COCCOCCOCCOCC(=O)Nc2ccc([C@@H]3c4[nH]c5ccccc5c4C[C@@H](C)N3CC(C)(C)F)cc2)C(C)(C)C)cc1` [Example 55, N^1-(4-((1R,3R)-2-(2-fluoro-2-methylpropyl)-3-methyl-2,3,4,9-tetrahydro-1H-pyrido[3,4-b]indol-1-yl)phenyl)-N^14—((S)-1-((2S,4R)-4-hydroxy-2-((4-(4-methylthiazol-5-yl)benzyl)carbamoyl)pyrrolidin-1-yl)-3,3-dimethyl-1-oxobutan-2-yl)-3,6,9,12-tetraoxatetradecanediamide, Trifluoroacetic Acid]: the “ER degradation ≥ 90% at 0.3 μM” value is “•” and the DC50 was determined as 1.2 nM.

Take `Cc1ncsc1-c1ccc(CNC(=O)[C@@H]2C[C@@H](O)CN2C(=O)[C@@H](NC(=O)COCCOCCOCCCNC(=O)c2cc(F)c([C@@H]3c4[nH]c5ccccc5c4C[C@@H](C)N3CC(C)(C)F)c(F)c2)C(C)(C)C)cc1` [Example 84, (2S,4R)-1-((S)-16-(tert-Butyl)-1-(3,5-difluoro-4-((1R,3R)-2-(2-fluoro-2-methylpropyl)-3-methyl-2,3,4,9-tetrahydro-1H-pyrido[3,4-b]indol-1-yl)phenyl)-1,14-dioxo-6,9,12-trioxa-2,15-diazaheptadecan-17-oyl)-4-hydroxy-N-(4-(4-methylthiazol-5-yl)benzyl)pyrrolidine-2-carboxamide]: the “ER degradation ≥ 90% at 0.3 μM” value is given as “••” and the DC50 is 0.7 nM.

As for `Cc1ncsc1-c1ccc(CNC(=O)[C@@H]2C[C@@H](O)CN2C(=O)[C@@H](NC(=O)COCCOCCNC(=O)/C=C/c2cc(F)c([C@@H]3c4[nH]c5ccccc5c4C[C@@H](C)N3CC(C)(C)F)c(F)c2)C(C)(C)C)cc1` [Example 58, (2S,4R)-1-((S,E)-2-(tert-butyl)-15-(3,5-difluoro-4-((1R,3R)-2-(2-fluoro-2-methylpropyl)-3-methyl-2,3,4,9-tetrahydro-1H-pyrido[3,4-b]indol-1-yl)phenyl)-4,13-dioxo-6,9-dioxa-3,124-diazapentadec-4-enoyl)-4-hydroxy-N-(4-(4-methylthiazol-5-yl)benzyl)pyrrolidine-2-carboxamide, Trifluoroacetic Acid], the “ER degradation ≥ 90% at 0.3 μM” value is on record as “•” and the DC50 came to 0.4 nM.

Regarding `Cc1ncsc1-c1ccc(CNC(=O)[C@@H]2C[C@@H](O)CN2C(=O)[C@@H](NC(=O)Cc2ccc(OCCOCCNC(=O)/C=C/c3cc(F)c([C@@H]4c5[nH]c6ccccc6c5C[C@@H](C)N4CC(C)(C)F)c(F)c3)cc2)C(C)(C)C)cc1` [Example 66, (2S,4R)-1-((S)-2-(2-(4-(2-(2-((E)-3-(3,5-difluoro-4-((1R,3R)-2-(2-fluoro-2-methylpropyl)-3-methyl-2,3,4,9-tetrahydro-1H-pyrido[3,4-b]indol-1-yl)phenyl)acrylamido)ethoxy)ethoxy)phenyl)acetamido)-3,3-dimethylbutanoyl)-4-hydroxy-N-(4-(4-methylthiazol-5-yl)benzyl)pyrrolidine-2-carboxamide, Trifluoroacetic Acid], the “ER degradation ≥ 90% at 0.3 μM” value is given as “•” and the DC50 turned out to be 2.2 nM.

In the case of `Cc1ncsc1-c1ccc(CNC(=O)[C@@H]2C[C@@H](O)CN2C(=O)[C@@H](NC(=O)COCCOCCOCCNC(=O)/C=C/c2cc(F)c([C@@H]3c4[nH]c5ccccc5c4C[C@@H](C)N3CC(C)(C)F)c(F)c2)C(C)(C)C)cc1` [Example 63, (2S,4R)-1-((S,E)-2-(tert-butyl)-18-(3,5-difluoro-4-((1R,3R)-2-(2-fluoro-2-methylpropyl)-3-methyl-2,3,4,9-tetrahydro-1H-pyrido[3,4-b]indol-1-yl)phenyl)-4,16-dioxo-6,9,12-trioxa-3,15-diazaoctadec-17-enoyl)-4-hydroxy-N-(4-(4-methylthiazol-5-yl)benzyl)pyrrolidine-2-carboxamide, Trifluoroacetic Acid], the “ER degradation ≥ 90% at 0.3 μM” value was “••” and the DC50 came to 0.6 nM.

Take `Cc1ncsc1-c1ccc(CNC(=O)[C@@H]2C[C@@H](O)CN2C(=O)[C@@H](NC(=O)COCCOCCOCCCCNC(=O)c2cc(F)c([C@@H]3c4[nH]c5ccccc5c4C[C@@H](C)N3CC(C)(C)F)c(F)c2)C(C)(C)C)cc1` [Example 83, (2S,4R)-1-((S)-17-(tert-Butyl)-1-(3,5-difluoro-4-((1R,3R)-2-(2-fluoro-2-methylpropyl)-3-methyl-2,3,4,9-tetrahydro-1H-pyrido[3,4-b]indol-1-yl)phenyl)-1,15-dioxo-7,10,13-trioxa-2,16-diazaoctadecan-18-oyl)-4-hydroxy-N-(4-(4-methylthiazol-5-yl)benzyl)pyrrolidine-2-carboxamide]: the “ER degradation ≥ 90% at 0.3 μM” value is “••” and the DC50 was determined as 0.6 nM.

For `Cc1ncsc1-c1ccc(CNC(=O)[C@@H]2C[C@@H](O)CN2C(=O)[C@@H](NC(=O)COCCOCCOCCNC(=O)c2cc(F)c([C@@H]3c4[nH]c5ccccc5c4C[C@@H](C)N3CC(C)(C)F)c(F)c2)C(C)(C)C)cc1` [Example 91, (2S,4R)-1-((S)-15-(tert-Butyl)-1-(3,5-difluoro-4-((1R,3R)-2-(2-fluoro-2-methylpropyl)-3-methyl-2,3,4,9-tetrahydro-1H-pyrido[3,4-b]indol-1-yl)phenyl)-1,13-dioxo-5,8,11-trioxa-2,14-diazahexadecan-16-oyl)-4-hydroxy-N-(4-(4-methylthiazol-5-yl)benzyl)pyrrolidine-2-carboxamide], the “ER degradation ≥ 90% at 0.3 μM” value was “••” and the DC50 stood at 0.3 nM.

(Values after US10519152B2, “Compounds and their use in treating cancer” (AstraZeneca AB, priority 2017, dated 2019).)
